Patent publication US9901608B2, “Composition and method for enhancing alcohol metabolism” (GANGNEUNG-WONJU NATIONAL UNIVERSITY INDUSTRY ACADEMY …, priority 2014, dated 2018)

Legend:
[1] = system: ALDH (acetaldehyde dehydrogenase) gene; assay: qPCR of ALDH mRNA in HepG2 cells; assay type: cell-based, human; settings: HepG2, 10 μM, 1 and 2 h
Description: To evaluate the role of the GFM in ethanol metabolism, the genes of primary enzymes (ADH, ALDH, CYP2E1, and catalase) involved in eliminating ethanol from the body were quantified by real-time qPCR. Particularly, total RNA extracts from HepG2 cells (1×10^6 cells/well) treated with ethanol (0.2 mM) or GFM (10 μg/ml) were prepared using the Trizol method (Invitrogen) after 1, 2, 4 and 24 h after the treatment. And then, cDNA was synthesized from RNA by reverse transcription of 1 μg of total RNA using the Improm-II reverse transcription system (Promega) and oligo dT primers in a total volume of 20 μL. PCR amplification was performed using the primers described in Table 1 (Bioneer, Deajeon, Republic of Korea). Quantitative real-time PCR reactions were run on a Rotor-Gene 6000 (Corbett Research, Sydney, Australia) using SYBR Green PCR Master Mix (Qiagen, Valencia, Calif., USA) in 20 μL reaction mixtures. Each real-time-PCR master mix contained 10 μL 2× enzyme mastermix, 7.0 μL RNase free water, 1 μL of each primer (10 μM each) and 1 μL diluted template. […] Relative sample expression levels were calculated using Rotor-Gene 6000 Series Software 1.7 and were expressed relative to glyceraldehyde 3-phosphate dehydrogenase and corrected for between-run variability. Data for the experimental samples were expressed as a percentage of the internal control gene. […]

[2] = Hepatoprotective effect: serum GOT and GPT after oral ethanol; settings: 20% ethanol only, 300 μl oral, 8 h after ethanol
Description: (§1) GFM suspended in saline solution was orally administrated (25 mg/kg) and CTD dried and then resolved in saline solution (50 mg/kg) was used as positive control (50 mg/kg). Before the administration, the experimental animals fasted 4 hours, and after the administration additional 1 hour of fasting was performed.

[3] = male, BALB/c, mouse, in vivo, 1 h
Description: Male BALB/c mice (7-week old) were purchased from Samtaco (Osan, Kyunggi-do, Republic of Korea), and were adapted to laboratory conditions (temperature: 20±2° C., relative humidity: 50%, light/dark cycle: 12 h) for 1 week. […] Perfused liver tissues from the treated mice were prepared using the Trizol method (Invitrogen, USA).
The enzymatic analysis was conducted with ALDH according to the method of Lundquist (Lundquist F. et al., Biochem. J., 68:172-177, 1958; Lundquist F. et al., In: Bergmeier H U (ed) Methods of enzymatic analysis. 2nd ed. Weinheim/New York and London, 230-257, 1974). This enzymatic test for alcohol utilizes the coenzyme NAD and ADH. The amount of NADH formed is stoichiometric to the amount of acetaldehyde. NADH was determined by light absorbance at 365 nm.

HepG2 cells = assay: Cytotoxicity assay by LDH release; assay type: cell-based, human; settings: HepG2, ethanol 200 mM
Description: HepG2 human hepatoma cells (Korean Cell Line Bank, Seoul, Republic of Korea) were grown in RPMI1640 complete medium (Hyclone, Logan, Utah, USA) supplemented with 10% fetal bovine serum, 100 U/mL penicillin, and 100 μg/mL streptomycin (Invitrogen, Carlsbad, Calif., USA). The cultures were maintained under 5% CO2 at 37° C. in tissue culture flasks. For all experiments, cells were grown to >90% confluency and subjected to no more than 20 cell passages. The medium was changed every 2-3 days. Subconfluent cells were harvested and seeded at a density of 5×10^5 cells or 1.5×10^6 cells in poly-L-lysine-coated 35 mm or 60 mm culture plates. […]
Cytotoxicity of the GFM was investigated by measuring lactate dehydrogenase (LDH) release from HepG2 cells. That is, the cytotoxicity induced by the GFM in HepG2 cells was quantified by measuring LDH release at varying ranges of concentration (1-1,000 μg/mL). Cytotoxicity in experimental samples was determined as % LDH release, and the data from triplicate cultures were expressed as the mean±standard deviation. Concentration-dependent cytotoxicity determined as % LDH release was compared with non-treated control cells (Ctrl) and H2O2 (1 mM)-treated control was used as a positive control. […] Formazan was quantified spectrophotometrically by measuring its absorbance at 490 nm (Spectra Max 340, Molecular Devices, Sunnyvale, Calif., USA).

[4] = Side effects: body weights, organ masses, symptoms after administration; settings: ethanol only (300 μl of 20% ethanol oral), 8 h
Description: as §1

| SMILES | ALDH mRNA expression induced by fatty acid [1] | serum GOT [2] [IU/L] | serum GPT [2] [IU/L] | serum ethanol detected by GC [3] [%] | cytotoxicity (% LDH release) (HepG2 cells) | Body weight [4] [g] | Liver mass [4] [g] | Spleen mass [4] [g] |
| --- | --- | --- | --- | --- | --- | --- | --- | --- |
| CCCCC/C=C\C/C=C\CCCCCCCC(=O)O [LA, linoleic acid] | effectiveness of GFM might be mainly from LA | – | – | – | – | – | – | – |
| CCO [ethanol] | – | 259.00 ± 17.44 | 150.50 ± 10.13 | 12.2 | not cytotoxic | 21.00 ± 0.57 | 1.31 ± 0.11 | 0.09 ± 0.01 |
